# Earlier results in patent US20250241301A1, “COMPOSITIONS AND METHODS FOR INHIBITING PATHOGEN GROWTH ON PLANTS AND IMPROVING CROP SAFETY” (priority 2024, published 2025).
# System: potatoes
# Conditions: T2H applied alone; cited from earlier work
compound,measurement,value
"CCC/C=C/C=O [T2H, trans-2-hexenal]",skin pitting/lesion damage to potatoes,skin pitting/lesion damage
